Measured values: the supplement of paper PMC6965134

Experiment: TIMS collisional cross section (CCS, N2) of the lipid ion; higher = larger ion cross section
Details: ionization mode: negative, one isomer drawn
Method: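 Lipid extracts of human plasma (NIST SRM 1950), mouse liver or HeLa cells were separated by nanoflow C18 LC (30 min gradient) and analysed by TIMS-PASEF on a timsTOF Pro. Ion mobility was calibrated with the Agilent tuning mix (negative mode ions) and converted to collisional cross sections (Mason–Schamp, N2).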
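Note: lipids from MTBE extraction, five replicate injections per sample, 100 ms TIMS ramp spanning 0.6–1.95 Vs/cm², lipid identity assigned from PASEF MS/MS spectra.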

CC/C=C\C/C=C\C/C=C\C/C=C\C/C=C\C/C=C\CCC(=O)OC[C@H](COP(=O)(O)OC[C@H](N)C(=O)O)OC(=O)CCCCCCCCCCCCCCCCC [PS 22:6_18:0]
TIMS collisional cross section (sample type: Mouse Liver, ion (formula + adduct): [C46H78NO10P-H] 1-): 289.7 Å²

CCCCCCCC/C=C\CCCCCCCC(=O)N[C@@H](COP(=O)([O-])OCC[N+](C)(C)C)[C@H](O)/C=C/CCCCCCCCCCC [SM d16:1_18:1@]
TIMS collisional cross section (sample type: Human plasma, ion (formula + adduct): [C39H77N2O6P+HCOO] 1-): 285 Å²

CCCCCCCCCCCCC/C=C/[C@@H](O)[C@H](COP(=O)([O-])OCC[N+](C)(C)C)NC(=O)CCCCCCCCCCCCC [SM d18:1_14:0@]
TIMS collisional cross section (sample type: Human plasma, ion (formula + adduct): [C37H75N2O6P+HCOO] 1-): 280.6 Å²
